Columns and labels:
asthmatic mice = experiment: Ovalbumin-induced asthma mouse model (BALF leukocyte counts, lung inflammation); format: in vivo, BABL/c mice; conditions: for percentage of eosinophils in BALF / percentage of macrophages in BALF / percentage of neutrophils in BALF / total number of leukocytes in BALF: intraperitoneal injection; for percentage of eosinophils in BALF / percentage of macrophages in BALF / percentage of neutrophils in BALF / total number of leukocytes in BALF / eosinophils in BALF: vs model control
Description: (§1) 4. Effects of Compounds on Ovalbumin-Induced Asthma in Mouse and Rat Models
(§2) SPF-grade SD male rats (purchased from Zhejiang Academy of Medical Sciences, license number SCXK (Zhejiang) 2019-0002) with a body weight of 160-180 g; and SPF-grade female BABL/c mice (purchased from Zhejiang Weitong Lihua Experimental Animals Technology Co., Ltd., license number SCXK (Zhejiang) 2019-0001) with a body weight of 16-18 g were used. The above animals were raised by the Experimental Animal Center of Zhejiang Academy of Traditional Chinese Medicine.
(§3) Formulation of compound solution: compound was vortexed in a solvent system, dissolved by ultrasound, and prepared into a solution at a corresponding concentration, which was prepared just before use (the solvent system was composed of 5% Solutol HS 15, 5% DMSO and 90% physiological saline).
(§4) BABL/c mice or SD rats were randomly divided into: normal control group, model control group, dexamethasone group (0.72 mg/kg), and the respective test compound groups (one group for each dose), 10 mice in each group; 6 rats in each group.
Sensitization of mice: on the mornings of Day 0, Day 7, and Day 14, mice in the model control group and the respective drug administration groups were intraperitoneally injected with 0.2 ml of 10% OVA sensitizing solution (Yuanye Bio), and the normal control group was intraperitoneally injected with an equal volume of normal saline. In the afternoons of Day 7 and Day 14, mice in the model control group and the respective drug administration groups were intraperitoneally injected with 0.2 ml of 10% OVA (Sigma), and the normal control group was intraperitoneally injected with an equal volume of normal saline.
Mice: from Day 21, the normal control group and the model control group were not treated; the dexamethasone group and the respective test compound groups were intraperitoneally injected, 20 minutes before each challenge, with the corresponding drugs, injection volume: 0.1 ml/10 g, administered for 7 consecutive days; mice in the test compound-oral group were given the corresponding drugs by intragastric administration 30 minutes before the challenge; the test compound-atomization group or the dexamethasone-atomization group was given the corresponding drugs at different concentrations before challenge, 8 ml for each group, atomization for 30 minutes; the normal control group and the model control group were given no treatment. Administration was conducted for 7 consecutive days.
Mice: from Day 21, the mice in the model control group and the respective administration groups were placed in airtight containers in turn, and the challenging solution was atomized with an ultrasonic nebulizer (approximately 6-8 ml each time), twice a day, OVA challenging solution from Yuanye Shanghai was atomized in the morning, and OVA challenging solution from Sigma was atomized in the afternoon. Mice were challenged for 30 minutes per atomization, for 7 consecutive days. The normal control group was not treated. Mice in the model control group developing cyanosis of lips, accelerated breathing, unsteadiness during standing, nodding breathing, abdominal muscle cramps, etc. was deemed as a sign of success of the animal model.
24 hours after completion of the last challenge, the trachea of the mouse was exposed in front of the neck, a horizontal incision was made in the trachea with an ophthalmic scissor, and a 5 ml syringe-modified tracheal intubation needle was inserted, the left main bronchus was ligated, and the right main bronchus was intubated and tightened with surgical suture. Bronchoalveolar lavage was conducted 3 times with 0.3 ml normal saline, pumpback twice each time. The BALF was combined and collected in a 1.5 ml test tube, which was placed on ice or in a refrigerator at 4 degrees.
50 μl of the above BALF was taken, and 100 μl white blood cell counting diluent (2% iced acetic acid solution) was added thereto and mixed evenly therewith. […]

asthmatic rats = experiment: Ovalbumin-induced asthma rat model (HE staining, lung tissue inflammation area, airway inflammation score); format: in vivo, SD rats
Description: as §1, §2, §3, §4
Sensitization of rats: On Day 1 and Day 8, the model control group and the respective drug administration groups were intraperitoneally injected with 1 ml of 10% OVA sensitizing solution, and the normal group was intraperitoneally injected with an equal volume of normal saline.
Rat: from Day 15, the dexamethasone group and the respective test compound groups were intraperitoneally injected, 20 minutes before challenge, with the corresponding drugs with an injection volume of 0.3 ml/100 g; the model control group was intraperitoneally injected, 20 minutes before challenge, with an equal volume of solvent system; and the normal control group was not treated. Administration was conducted for 7 consecutive days. […]
The rat was anesthetized with 10% urethane at 1.3 ml/100 g volume, and the left lung tissue was taken and fixed in 4% neutral formaldehyde, paraffin-embedded according to routine operation, sectioned for HE staining. […] NIS-Elements D 3.2 software was used to manually integrate and measure the total area of lung tissue sections and the inflammation area under all fields of view, the total areas under each field of view were accumulated, and the percentage of the cumulative area of inflammation in the total area was calculated, wherein the percentage of inflammation area=cumulative area of inflammation/total area×100%.
All data were expressed as mean±standard deviation (x±s), and the data were processed by SPSS 20.0 statistical software. […]

[1] = intraperitoneal injection, vs model group, P<0.05, 0.01

N#Cc1ccc(NC2(C(=O)N3CCN(c4ccc(C(F)(F)F)cc4)CC3)CCCC2)cc1 [Compound 1, 4-((1-(4-(4-(trifluoromethyl)phenyl)piperazine-1-carbonyl)cyclopentyl)amino)benzonitrile]
percentage of eosinophils in BALF (asthmatic mice; P<0.01): decreased
percentage of macrophages in BALF (asthmatic mice; P<0.01): increased
percentage of neutrophils in BALF (asthmatic mice; P<0.01): decreased
total number of leukocytes in BALF (asthmatic mice; P<0.01): decreased
lung tissue inflammation area (asthmatic mice; oral administration, P<0.05): significantly reduced
eosinophils in BALF (asthmatic mice; oral administration, P<0.01): significantly reduced
airway inflammation score (asthmatic mice; spray inhalation, P>0.05): decreasing trend, but not reaching a statistical significance
lung tissue inflammation area (asthmatic mice; spray inhalation, respective dose groups, P<0.01, 0.05): reduce the lung tissue inflammation area of asthmatic mice in a dose-dependent manner
eosinophils in BALF (asthmatic mice; spray inhalation, respective dose groups, P<0.05, 0.01): dose-dependent decrease
lung tissue inflammation and inflammatory cell infiltration around the airway (HE x40) (asthmatic rats; compared with the model group): significant improvement
airway inflammation score (asthmatic rats; [1]): significantly decreased
lung tissue inflammation area (asthmatic rats; [1]): significantly decreased

CC(C)(C)C1CCN(C(=O)C2(Nc3ccc(C#N)cc3)CCCC2)CC1 [Compound 31, 4-((1-(4-(tert-butyl)piperidine-1-carbonyl)cyclopentyl)amino)benzonitrile]
percentage of eosinophils in BALF (asthmatic mice; P<0.01): decreased
percentage of macrophages in BALF (asthmatic mice; P<0.01): increased
percentage of neutrophils in BALF (asthmatic mice; P<0.01): decreased
total number of leukocytes in BALF (asthmatic mice; P<0.01): decreased
